This test concerns human Burkitt lymphoma Daudi cells. In words: Cytotoxic effects on human Burkitt lymphoma Daudi cells (MTT assay). It counts as cell-based. The method, then: Human Burkitt Lymphoma Daudi cells (1×10^6 cells/ml) were treated with different concentrations of Merodantoin. After overnight incubation at 37° C., the tumor cells kill was determined by MTT assay.
Human Burkitt Lymphoma Daudi cells (1×10^6 cells/ml) were treated with different concentrations of Merocil. After overnight incubation at 37° C., the tumor cells kill was determined by MTT assay.
Each cell type (1×10^6 cells/ml; in triplicate) was treated with indicated concentrations of Merocil or Merodantoin. After overnight (20 hr.) or 5 day incubation periods, the cell viability was determined by MTT assay and calculated as a percentage of untreated controls.
(Formazan colour is commonly taken as a measure of viable cells.)

Consider `CCCCN1C(=O)C(=O)N(CCCC)C1=S` [Merodantoin, N,N'-Dibutyl-2-thio-4,5-imidazolindion], for which, for the setting “25 μg/ml”, the “growth inhibition of cultured Daudi lymphoma cells” value is listed as “virtually complete growth inhibition”. Moreover, where the note is “Homo sapiens, Daudi, 1.56 μg/ml, overnight, 37° C., read-out: % Cell Kill (means ± S.D.)”, the cytotoxicity at 1.56 µg/mL was found to be 2.75 ± 3.2%. For the same compound, the cytotoxicity at 3.13 µg/mL (Homo sapiens, Daudi, 3.13 μg/ml, overnight, 37° C., read-out: % Cell Kill (means ± S.D.)) was determined as 6.25 ± 2.99%. In addition, the cytotoxicity at 6.25 µg/mL (Homo sapiens, Daudi, 6.25 μg/ml, overnight, 37° C., read-out: % Cell Kill (means ± S.D.)) came out at 9.75 ± 1.71%. The cytotoxicity at 12.5 µg/mL (Homo sapiens, Daudi, 12.50 μg/ml, overnight, 37° C., read-out: % Cell Kill (means ± S.D.)) turned out to be 42 ± 8.68%. Moreover, the cytotoxicity at 25 µg/mL (Homo sapiens, Daudi, 25.00 μg/ml, overnight, 37° C., read-out: % Cell Kill (means ± S.D.)) turned out to be 100%.

The values are drawn from patent publication US5312919A, “Photooxidation products and derivatives thereof of merocyanine-540, their preparation and uses” (priority 1992, dated 1994).
